Common to all, as to assay type: cell-based
The subject of one test is MKN45 cells. Description: MKN45 cell proliferation assay (CellTiter-Glo). The settings on record: Homo sapiens, MKN-45, 72 h; MKN45 cell line; 3 days incubation; at least duplicate experiments; read-out: Prolif. IC50. The method, then: The effect of inhibitors on the proliferation of MKN45 cells was determined using the following protocol. MKN45 cells were plated in Corning 3917 96-well white tissue culture treated plates in growth medium (RPMI, 10% FCS) at a density of 5000 cells/well in a total volume of 135 μL and incubated at 37° C., 5% CO2, 95% humidity overnight. The following day, one-tenth volume of a 10× concentration of compounds was added to the wells in an 8-point dilution series. The dilution series was composed of an initial 1:5 dilution of a 10 mM stock of compound in DMSO, followed by serial 1:4 dilutions in DMSO, then a 1:20 dilution in growth medium prior to the 1:10 dilution into the cell plate. […] The typical dilution range is 10 μM to 0.6 nM. Once the compound was added to the cells, plates were incubated for 3 days at 37° C., 5% CO2 at 95% humidity. On the third day, after allowing all cells and reagents to come to room temperature, 25 μL of CellTiter-Glo reagent (Promega #G7573) was added to the wells. Plates were shaken on a platform for 10 minutes prior to reading luminescence for 0.1 seconds. The signal of the control wells was taken as 100% growth and growth inhibition was expressed as percent of control. IC50 values were determined from the percent of control data using a standard four-parameter model.
The IC50 values of exemplary compounds of the present invention determined in a cell proliferation assay using the MKN45 cell line according to the procedures described herein in at least duplicate experiments are abbreviated as follows and are shown in Table 2: A, IC50≦0.05 μM; B, 0.05 μM<IC50≦0.2 μM; C, 0.2 μM<IC50≦1 μM; D, IC50>1 μM; ND, not determined. The Example # of Table 2 corresponds to the compound example number as illustrated in the Examples section.
Treatment of this cell line with a selective c-MET inhibitor led to induction of apoptosis and inhibition of proliferation, whereas non-MET-amplified cell lines were not affected [Smolen et al., Proc. Natl. Acad. Sci. USA, 103(7):2316-2321 (2006)]. This cell line is thus “driven” by c-MET, and antiproliferative effects correlate very well with the inhibition of c-MET phosphorylation so that the cell proliferation IC50, values can be used as surrogate for the c-MET cell mechanistic IC50, values. Under the assay conditions described herein, the IC50 values correlate nearly 1:1.
(Cellular ATP, detected with luciferase, serves as a proxy for viable cell number.)

The subject of another test is Karpas-299 cells. Briefly: Karpas-299 cell proliferation assay (CellTiter-Glo). To be noted: Homo sapiens, 72 h; Karpas-299 cell line (NPM-ALK); 3 days incubation; at least duplicate experiments; read-out: Prolif. IC50. The method, then: The effect of inhibitors on the proliferation of Karpas-299 cells (DSMZ no. ACC 31) was determined using the following protocol. Karpas-299 cells were plated in 96-well white tissue culture treated plates (Corning 3917) in growth medium (RPMI, 10% FCS) at a density of 5000 cells/well in a total volume of 135 μL and incubated at 37° C., 5% CO2, 95% humidity overnight. The following day, one-tenth volume of a 10× concentration of compounds was added to the wells in an 8-point dilution series. Compounds were serially diluted (1:4) in DMSO from a 10 mM stock solution prior to dilution in growth media to the 10× working concentrations (5% DMSO). Final concentration of DMSO in compound-treated wells was 0.5%. Control wells containing growth media or growth media/0.5% DMSO were included in all test plates. […] Once the compounds were added to the cells, plates were incubated for 3 days at 37° C., 5% CO2 at 95% humidity. After 72 hours, all cells and reagents were equilibrated to room temperature and 15 μL of CellTiter-Glo reagent (Promega # G7573) was added to each well. Plates were shaken on a platform for 10 minutes at room temperature prior to reading luminescence. The value of the signal of the control wells was set as 100% growth and growth inhibition was expressed as percent of control. IC50 values were determined from the percent of control data using a standard four-parameter curve fit equation.
The IC50 values of exemplary compounds of the present invention determined in a cell proliferation assay using the Karpas-299 cell line according to the procedures described herein in at least duplicate experiments are abbreviated as follows and are shown in Table 5: A, IC50≦0.05 μM; B, 0.05 μM<IC50≦0.2 μM; C, 0.2 μM<IC50≦1 μM; D, IC50>1 μM; ND, not determined. The Example # of Table 5 corresponds to the compound example number as illustrated in the Examples section.
The Karpas-299 cell line has a t(2; 5) chromosomal translocation and expresses the NPM-ALK fusion protein, resulting in constitutively active ALK. […] Ther. 6(12):3314-22 (2007)]. With this “ALK-driven” cell line, the cell proliferation IC50 values can thus be used as surrogate for the p-ALK cell mechanistic IC50 values.

A further test addresses T1, RON (Homo sapiens, UniProt Q04912).
T1 sequence (Q04912 913-1400): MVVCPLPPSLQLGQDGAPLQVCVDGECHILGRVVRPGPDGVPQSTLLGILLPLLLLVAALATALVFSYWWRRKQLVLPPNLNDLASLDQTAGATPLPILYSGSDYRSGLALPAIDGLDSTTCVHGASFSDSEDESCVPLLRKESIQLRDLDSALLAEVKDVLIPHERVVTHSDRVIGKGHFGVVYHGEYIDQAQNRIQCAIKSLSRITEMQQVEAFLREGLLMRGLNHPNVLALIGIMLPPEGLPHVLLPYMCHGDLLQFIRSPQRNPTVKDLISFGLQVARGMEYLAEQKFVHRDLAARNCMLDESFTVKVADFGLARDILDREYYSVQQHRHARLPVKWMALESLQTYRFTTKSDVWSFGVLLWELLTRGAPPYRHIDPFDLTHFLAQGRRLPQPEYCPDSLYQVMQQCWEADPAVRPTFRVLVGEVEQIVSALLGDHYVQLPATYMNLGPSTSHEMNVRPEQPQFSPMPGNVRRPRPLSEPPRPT
Description: sfRON cell mechanistic assay (HeLa), phosphorylated RON ELISA. To be noted: HeLa cells transfected with sfRON; inhibition of phosphorylated RON; four hours incubation; at least duplicate experiments; read-out: sfRON mech IC50. The method, then:
The cellular activity of the compounds of the present invention against RON may be determined by the following procedure. HeLa cells were plated in Falcon 3072 96-well plates in growth media (DMEM, 10% FBS, 1% L-glutamine) at a density of 10000 cells/well and incubated at 37° C., 5% CO2 overnight. The following day, cells were transfected with 0.2 μg sfRON-pcDNA plasmid DNA with 0.5 μL Lipofectamine-2000 per well in the presence of 50 μL OPTI-MEM, incubated at 37° C., 5% CO2 overnight. Costar 3915 96-well assay plates were coated with rabbit Anti-RON antibody at 2.0 μg/mL, sealed, and incubated overnight at 4° C. On the third day, coated plates were washed with PBS and blocked with 3% BSA. For the sfRON transfected cells, one-tenth volume of a 10× concentration of compounds was added to the wells in a 6-point dilution series. The dilution series was composed of an initial 1:5 dilution of a 10 mM DMSO stock solution of compound in DMSO, followed by a 1:10 dilution in growth media, for a final DMSO concentration on cells of 0.5%. Control wells were treated with 0.5% DMSO. The typical range of dilution was 10 μM to 3 nM. Once compound was added to the cells, plates were incubated for four hours at 37° C., 5% CO2. Plates were then washed in PBS, and lysed in triton-based lysis buffer. Lysates were transferred to the blocked capture plates. The phosphorylated RON levels were measured by incubating with a Goat polyclonal antibody against phosphorylated RON ([pYpY1238/1239]) followed by an anti-Goat antibody conjugated to HRP. Signal was measured on a Wallac Victor plate reader with luminance. The DMSO signal of the control wells was defined as 100% and the percent of inhibition of phosphorylated RON was expressed as percent of control. IC50 values were determined from the percent of control data using a standard four-parameter model.
The IC50 values of exemplary compounds of the present invention determined in a sfRON cell mechanistic assay using the HeLa cell line according to the procedures described herein in at least duplicate experiments are abbreviated as follows and are shown in Table 3: A, IC50≦0.2 μM; B, 0.2 μM<IC50≦1.0 μM; C, IC50>1 μM; ND, not determined. The Example # of Table 3 corresponds to the compound example number as illustrated in the Examples section.
(In an ELISA, binding on a coated surface is turned into a signal by an enzyme label.)

These results are taken from patent publication US8445510B2, “Fused bicyclic kinase inhibitors” (OSI Pharmaceuticals, LLC, priority 2011, dated 2013).

pIC50: −log10 of the molar value.

For the compound `Cc1c(-c2cnc3[nH]cc([C@H](C)c4c(OC(F)F)ccc(F)c4Cl)c3c2)cnn1[C@H]1CC[C@H](N)CC1` [Example 93, trans-4-[4-(3-{(1S)-1-[2-Chloro-6-(difluoromethoxy)-3-fluorophenyl]ethyl}-1H-pyrrolo[2,3-b]pyridin-5-yl)-5-methyl-1H-pyrazol-1-yl]cyclohexanamine], the pIC50 – broadly, −log10 of the IC50, conventionally taken in molar units – with MKN45 cells was at least 7.30; in the test with Karpas-299 cells, at least 7.30; on RON, at least 6.70.
Consider `N#CC(c1c(Cl)ccc(F)c1Cl)c1c[nH]c2ncc(-c3cnn([C@H]4CC[C@H](O)CC4)c3F)cc12` (stereo partly drawn) [Example 109], for which the results for the pIC50 in the test with MKN45 cells, in the test on Karpas-299 cells and at RON were 6.70 to 7.30, 6.00 to 6.70 and 6.00 to 6.70, respectively.
In the case of `COc1c(F)ccc(Cl)c1C(C)c1c[nH]c2ncc(-c3cnn([C@H]4CC[C@H](O)CC4)c3C)cc12` (stereo partly drawn) [Example 112, trans-4-(4-{3-[1-(6-Chloro-3-fluoro-2-methoxyphenyl)ethyl]-1H-pyrrolo[2,3-b]pyridin-5-yl}-5-methyl-1H-pyrazol-1-yl)cyclohexanol], the pIC50 is under 6.00 in the test on MKN45 cells, 6.00 to 6.70 in the test with Karpas-299 cells and under 6.00 on RON.
In the case of `[2H]C([2H])([2H])[C@H](c1c(OC(F)F)ccc(F)c1Cl)c1c[nH]c2ncc(-c3cnn([C@H]4CC[C@H](O)CC4)c3C)cc12` [Example 113, trans-4-(4-{3-[(1S)-1-[2-Chloro-6-(difluoromethoxy)-3-fluorophenyl](2,2,2-^2H3)ethyl]-1H-pyrrolo[2,3-b]pyridin-5-yl}-5-methyl-1H-pyrazol-1-yl)cyclohexanol], the pIC50 is at least 7.30 in the test with MKN45 cells, at least 7.30 in the test with Karpas-299 cells and at least 6.70 at RON.
`[2H][C@@](C)(c1c(OC(F)F)ccc(F)c1Cl)c1c[nH]c2ncc(-c3cnn([C@H]4CC[C@H](O)CC4)c3C)cc12` [Example 114, trans-4-(4-{3-[(1S)-1-[2-Chloro-6-(difluoromethoxy)-3-fluorophenyl](1-^2H)ethyl]-1H-pyrrolo[2,3-b]pyridin-5-yl}-5-methyl-1H-pyrazol-1-yl)cyclohexanol]: the values for the negative-log IC50 (pIC50) in the test with MKN45 cells, with Karpas-299 cells and at RON were at least 7.30, at least 7.30 and at least 6.70, respectively.
Consider `Cc1c(-c2cnc3[nH]cc(C(C)c4c(Cl)ccc(F)c4O)c3c2)cnn1[C@H]1CC[C@H](O)CC1` (stereo partly drawn) [Example 115, 3-Chloro-6-fluoro-2-(1-{5-[1-(trans-4-hydroxycyclohexyl)-5-methyl-1H-pyrazol-4-yl]-1H-pyrrolo[2,3-b]pyridin-3-yl}ethyl)-phenol], for which the pIC50 in the test with MKN45 cells was 6.70 to 7.30; in the test with Karpas-299 cells it was at least 7.30; at RON, under 6.00.
The matching figures for `Cc1c(-c2cnc3[nH]cc([C@H](CF)c4c(Cl)ccc(F)c4Cl)c3c2)cnn1[C@H]1CC[C@H](O)CC1` [Example 118, trans-4-(4-{3-[(1S)-1-(2,6-Dichloro-3-fluorophenyl)-2-fluoroethyl]-1H-pyrrolo[2,3-b]pyridin-5-yl}-5-methyl-1H-pyrazol-1-yl)cyclohexanol]: 6.70 to 7.30, 6.70 to 7.30 and 6.00 to 6.70.
On the same counts, the results for `COc1ccc(F)c(Cl)c1[C@H](CF)c1c[nH]c2ncc(-c3cnn([C@H]4CC[C@H](O)CC4)c3C)cc12` [Example 120, trans-4-(4-{3-[(1R)-1-(2-Chloro-3-fluoro-6-methoxyphenyl)-2-fluoroethyl]-1H-pyrrolo[2,3-b]pyridin-5-yl}-5-methyl-1H-pyrazol-1-yl)cyclohexanol] are 6.00 to 6.70, 6.00 to 6.70 and under 6.00.
